According to patent US9493466B2, “Treatment of cancer with TOR kinase inhibitors” (Signal Pharmaceuticals, LLC, priority 2011, dated 2016):

Columns and labels:
NCI-H441 tumors = experiment: NCI-H441 NSCLC in vivo tumor growth model; design: species or system SCID mice; details: 1 to 10 mg/kg oral BID, up to 26 days; FIG. 9
Procedure: NCI-H441 NSCLC In Vivo Tumor Growth Model. A xenograft study was conducted with NCI-H441 tumor-bearing mice. SCID mice were inoculated subcutaneously with NCI-H441 cells in the flank region above the right hind leg. Following inoculation of the animals, the tumors were allowed to grow to about 100 mm^3 prior to randomization. On Day 14 following tumor cell inoculation, the mice bearing NCI-H441 tumors ranging between 87 and 136 mm^3 were pooled together and randomized into various treatment groups. Compound 1 was formulated in 0.5% CMC and 0.25% Tween 80 in water (as a suspension). The animals were orally administered vehicle (CMC-Tween) or Compound 1 twice daily (BID) for up to 26 days. Doses of Compound 1 ranged between 1 and 10 mg/kg. The positive control rapamycin (4 mg/kg, Q3D) was administered via the intraperitoneal (IP) route. Rapamycin was prepared as solution in 2% ethanol, 45% polyethyleneglycol 400, and 53% saline. Tumors were measured twice a week using calipers and tumor volumes were calculated using the formula of W^2×L/2. Statistical analysis was performed using a one-way analysis of variance (ANOVA) followed by Dunnett's post-hoc comparison with the vehicle-treated control group.

U87MG tumors = experiment: U87MG human glioblastoma xenograft model (Compound 1); type: in vivo, SCID mice; details: for Tumor growth delay (TGD): to reach 1000 mm^3; for loss of initial body mass: end of first cycle (p<0.01)
Procedure: U87MG Human Glioblastoma Xenograft Model (Compound 1). Efficacy Studies: Groups of female SCID mice bearing U87MG tumors (n=8-10/group) were dosed orally with vehicle or Compound 1 throughout the study, starting when tumor volumes reached approximately 200 mm^3. The twice daily (BID) dose groups were dosed with a 10-hour separation between morning and evening doses. In the positive control group, rapamycin was administered Q3D via intraperitoneal (IP) route. At the end of each study, plasma and/or tumor samples were collected.
Cell Line and Culture. U87MG cell line was obtained from American Tissue Culture Collection (ATCC) (Gaithersberg, Md.) and grown in growth medium containing MEM, 2 mM L-glutamine, 0.1 mM non-essential amino acids and 1 mM sodium pyruvate and 10% fetal bovine serum (FBS). The cells were detached from tissue culture flasks using trypsin-EDTA. After centrifugation, the cell pellets were suspended in phosphate buffered saline (PBS) and counted using a hemocytometer. The final volume was adjusted to 5×10^6 cells/0.1 mL of PBS.
Tumor Cell Inoculation. Mice were anesthetized with inhaled isoflurane and then inoculated with U87MG tumor cells subcutaneously on the right hind leg with 0.1 mL of a single cell suspension in PBS using a sterile 1 mL syringe fitted with a 26 gauge needle. Following inoculation, the mice were returned to microisolator cages
Randomization of Animals. Following inoculation, tumors were allowed to grow to about 200 mm^3 prior to randomization. The typical number of days required for tumors to reach 200 mm^3 was 14-15 days. The tumor of each animal was measured and animals with tumors ranging between 175-250 mm^3 were included in the study. Animals from the pool were then distributed randomly into various cages and the cages were randomly assigned to vehicle, positive control, or test article groups. All of the mice were tagged with metal ear tags on the right ear.
Test Article Preparation and Administration. Suspensions of Compound 1 were prepared in aqueous 0.5% CMC and 0.25% Tween-80. The formulations were homogenized using a Teflon™ pestle and mortar (Potter-Elvehjem tissue grinder). Between the doses, the formulated compound was stored under constant stirring using a magnetic stirrer at 4° C. in the dark. The test article and vehicle were administered by oral gavage. The positive control, rapamycin, was prepared as solution in 2% ethanol, 45% polyethyleneglycol 400, and 53% saline and administered by IP injection. Sterile syringes and gavage needles were used for compound administration. All of the procedures including injections were done in biosafety cabinets disinfected with 70% ethanol prior to use.
Tumor Measurements. Tumor volumes were determined prior to the initiation of treatment and were considered as the starting volumes. Thereafter, tumors were measured twice a week for the duration of the study. The long and short axes of each tumor were measured using a digital caliper in millimeters. Tumor volumes were calculated using the formula: width^2×length/2. The tumor volumes were expressed in cubic millimeters (mm^3).
Tumor Growth Delay (TGD) Calculations. Tumor growth delay is the difference in days for treated versus control tumors to reach a volume of 1000 mm^3. The TGD was calculated from the data plotted in a graph format.
Body Weight Measurements. Initial body weights were recorded prior to the initiation of treatment using a digital scale. The percent body weight change during the course of the study was calculated using initial body weight measurements. Body weights of each animal were measured twice a week at the same time as the tumor measurements. Body weights were measured more frequently if significant decreases were noted during the course of the study.

G144-Luc cells = experiment: G144 cancer stem cell derived intracranial glioblastoma model; type: in vivo, Nude mice; details: 10 mg/kg and 20 mg/kg QD oral, up to 6 weeks; FIG. 15
Procedure: G144 Cancer Stem Cell Derived Intracranial Glioblastoma Model (Compound 1). An intracranial glioblastoma study was conducted with G144 glioblastoma cells transfected with luciferase (G144-Luc). Nude mice were inoculated intracranially with G144-Luc cells into the brain. Following inoculation of animals, the tumors were allowed to grow for 5 weeks. At the end of 5 weeks following tumor cell inoculation, the mice were imaged using Xenogen imaging system. The mice having tumors with an average flux ranging between 3.71×10^6 and 3.87×10^7 photons/sec were pooled together and randomized into various treatment groups. Compound 1 was formulated in 0.5% CMC and 0.25% Tween 80 in water (as a suspension). The animals were orally administered vehicle (CMC-Tween) or Compound 1 once daily (QD) for up to 6 weeks. Doses of 10 mg/kg and 20 mg/kg Compound 1 were used. The positive control Temozolomide (TMZ) (10 mg/kg, QD) was administered via intra peritoneal (IP) route. Temozolomide was formulated in 5% N-methylpyrrolidone, 45% PEG400 and 50% saline. The animals were monitored for tumor growth by imaging for bioluminescence once a week using Xenogen imaging system. Statistical analysis was performed using a one-way analysis of variance (ANOVA) followed by Dunnett's post-hoc comparison with the vehicle-treated control groups.

## CO[C@H]1CC[C@H](N2C(=O)CNc3ncc(-c4ccc(C(C)(C)O)nc4)nc32)CC1 [Compound 1, 7-(6-(2-hydroxypropan-2-yl)pyridin-3-yl)-1-((1r,4r)-4-methoxycyclohexyl)-3,4-dihydropyrazino-[2,3-b]pyrazin-2(1H)-one]
NCI-H441 tumors
  tumor growth: significantly inhibited
U87MG tumors; 5 mg/kg BID oral, Day 24 (dosing from Day 14)
  average tumor volume: 149±9 mm^3
U87MG tumors; 5 mg/kg BID oral, Day 31
  average tumor volume: 208±31 mm^3
  tumor volume reduction compared with vehicle control: 91%
U87MG tumors; 5 mg/kg BID, 18 days
  change in body weight: No significant change
U87MG tumors; 5 mg/kg BID
  Tumor growth delay (TGD): 11 days
U87MG tumors; 10 mg/kg BID oral, Day 24 (dosing from Day 14)
  average tumor volume: 96±4 mm^3
U87MG tumors; 10 mg/kg BID oral, Day 31
  average tumor volume: 96±13 mm^3
  tumor volume reduction compared with vehicle control: 96%
U87MG tumors; 10 mg/kg BID
  loss of initial body mass: about 10%
  Tumor growth delay (TGD): 20 days
U87MG tumors; 25 mg/kg Q2D oral, Day 24 (dosing from Day 14)
  average tumor volume: 101±8 mm^3
U87MG tumors; 25 mg/kg Q2D oral, Day 31
  average tumor volume: 116±15 mm^3
  tumor volume reduction compared with vehicle control: 95%
U87MG tumors; 25 mg/kg Q2D
  loss of initial body mass: about 10%
  Tumor growth delay (TGD): 17 days
U87MG tumors; 5 and 10 mg/kg BID and 25 mg/kg Q2D, persisted until Day 31
  tumor regression: showed tumor regression
U87MG tumors; QD oral, 3 weeks
  lowest efficacious dose as determined by 65% tumor volume inhibition: 1 mg/kg
U87MG tumors; QD study, 3 weeks, any of the groups
  change in body weight: No statistically significant change
U87MG tumors; all dose levels tested (0.5, 1, 3, 5 mg/kg QD, 3 weeks), Day 34
  tumor volume reduction: Significant (p<0.001) tumor volume reduction
G144-Luc cells
  intracranial tumor growth: significantly inhibited
